This is an account of results in patent US20100324132A1, “METHODS AND COMPOSITIONS FOR PROMOTING WOUND HEALING” (priority 2005, published 2010).

Test [1] relates to Staphylococcus aureus. The test is described as follows: MIC/MBC of Tris, EDTA, cocamidopropyl betaine and silver combinations, human burn isolates. Format: cell-based. To be noted: S. aureus isolated from a human burn patient; x = multiple of the stock solution.
In test [2] the test system is Pseudomonas aeruginosa. The test is described as above. Format: cell-based. To be noted: P. aeruginosa isolated from a human burn patient; x = multiple of the stock solution.
For test [3], the system named is Escherichia coli. Briefly: MIC/MBC of cocamidopropyl betaine, Tris-EDTA and their combination, dog isolates. In kind it is cell-based. Here is the method:
(§1) The formulation was tested against Pseudomonas aeruginosa, Proteus mirabilis, Escherichia coli, Staphylococcus intermedius, Malessezia pachydermatis, and Candida albicans.

For test [4], the system named is Pseudomonas aeruginosa. The test is described as above. In kind it is cell-based. Here is the method: as §1
For test [5], the system named is Malassezia pachydermatis. Described as above. In kind it is cell-based. Here is the method:
as §1

Test [6] has as its system Candida albicans. Described as above. In kind it is cell-based. Here is the method:
as §1

The subject of test [7] is Proteus mirabilis. The description is as above. In kind it is cell-based. Here is the method:
as §1

Test [8] concerns Staphylococcus intermedius. The description is as above. In kind it is cell-based. Here is the method: as §1
The test system of test [9] is Enterococcus faecalis. The test is described as follows: Antibiotic resistance profile, disc diffusion. Also: key: R = resistant; I = intermediate; S = sensitive. Format: cell-based. To be noted: E. faecalis isolated from burn patients. In general terms: In agar diffusion tests the substance spreads into inoculated agar from a disc or well.
The subject of test [10] is Staphylococcus aureus. The test is described as follows: Antibiotic resistance profile, disc diffusion. Also: key: R = resistant; I = intermediate; S = sensitive. Format: cell-based. The conditions noted are these: S. aureus isolated from burn patients.
In test [11] the test system is Pseudomonas aeruginosa. Briefly: Antibiotic resistance profile, disc diffusion. Also: key: R = resistant; I = intermediate; S = sensitive. Format: cell-based. To be noted: P. aeruginosa isolated from burn patients.
In test [12] the test system is surface ulcers with multiple resistant pathogenic species. The test is described as follows: Bath treatment of ulcerated Koi. Format: in vivo, Koi (Cyprinus carpio). The conditions noted are these: antibiotics injected directly into the fish before the bath treatment. Here is the method:
An immersion treatment of the infected animals of 5 to 10 minutes on alternate days over a six day period promoted healing of most ulcers.
All of the treated fish had previously been given injections of Azactam, Baytril, and Amikacin. […] Among the species of bacteria found in the ulcers of the fish were representatives of the genera Aeromonas, Proteus, Klebsiella, Staphylococcus, Streptococcus, Enterobacter and Flavobacterium.
All fish were housed in a communal “hospital tank” before treatment and moved to an isolation tank after each treatment. The temperature of the bath was adjusted to that of the hospital tank temperature, 24 C, and adequate aeration was supplied to the treatment tank. Eight of the fish had external ulcers of various dimensions. Two of the fish were dropsied.

Test [13] concerns Aeromonas sobria. Briefly: MIC and FIC of EDTA and neomycin, Aeromonas isolated from ulcerated fish. The conditions noted are these: A. sobria. Format: cell-based. Here is the method:
(§2) This example describes a method for determining the FIC values set forth in Example 4. […] Agents and Chem. pp. 210-217 (1967); and Sparks et al., Vet. Res. Comm. 18:241-249 (1994). Each of the foregoing publications are incorporated herein by reference. […] Then 0.05 ml of an 18-hour old culture of a test organism, containing […] colony-forming units (CFU) ml, were added to each well. Controls for the culture and media were included in each plate. Plates were covered and incubated at 37° C. for 18-24 hours. A numerical score or Fractional Inhibitory Concentration (FIC) index was determined. The FIC index is equal to the sum of the values of FIC for the individual drugs: An FIC index greater than 1.0 indicated an antagonistic interaction, an FIC index of 1.0 indicated addition, and an FIC index of less than or equal to 0.5 indicated synergism between the two test agents.

Test [14] has as its system Aeromonas caviae. The test is described as above. Format: cell-based. To be noted: A. caviae. Here is the method:
as §2

Test [15] has as its system Enterococcus faecalis. Briefly: MIC/MBC and checkerboard of EDTA-Tris and neomycin. Format: cell-based. The conditions noted are these: in 50 mM Tris. Here is the method: (§3) This example describes a method for determining the FIC values set forth in Example 4. […] Agents and Chem. pp. 210-217 (1967); and Sparks et al., Vet. Res. Comm. 18:241-249 (1994). Each of the foregoing publications are incorporated herein by reference.
(§4) Then 0.05 ml of an 18-hour old culture of a test organism, containing […] colony-forming units (CFU) ml, were added to each well. Controls for the culture and media were included in each plate. Plates were covered and incubated at 37° C. for 18-24 hours.
(§5) To generate isobolograms, FICs of the two test solutions were plotted individually on the x-axis and y-axis to determine the effect of combining the two test solutions on bacterial growth. A line that curves away from the zero point and the coordinates indicated antagonism. […] Goodman and Gilman, pp. 1085-1086 (Macmillan Publishing Co., New York, 1985); Sabath, L. D., Antimicrob. Agents and Chem. pp. 210-217 (1967) and incorporated herein by reference in their entireties.
(§6) A numerical score or Fractional Inhibitory Concentration (FIC) index was determined. The FIC index is equal to the sum of the values of FIC for the individual drugs:
(§7) An FIC index greater than 1.0 indicated an antagonistic interaction, an FIC index of 1.0 indicated addition, and an FIC index of less than or equal to 0.5 indicated synergism between the two test agents.
(§8) The organisms of this study were isolated from human burn patients. They included strains of methicillin resistant Staphylococcus aureus, and vancomycin resistant strains of Pseudomonas aeruginosa and Enterococcus faecalis. The bacterial isolates were propagated in or on Brain Heart Infusion broth (BHI), Mueller-Hinton Broth (MHB), blood agar (BA), Mueller-Hinton agar (MBA), enterococcus agar (EA), or 2× nutrient agar (2× NA).
(§9) 307 (pub: Am. Soc. Microbiol. Williams and Wilkins, Baltimore 1970), incorporated herein by reference in its entirety.

In test [16] the test system is Pseudomonas aeruginosa. Briefly: MIC/MBC and checkerboard of EDTA-Tris and neomycin. The conditions noted are these: in 50 mM Tris. In kind it is cell-based. Here is the method: as §3, §4, §5, §6, §7, §8, §9
In test [17] the test system is Aeromonas hydrophila. Briefly: MIC and FIC of EDTA and neomycin, Aeromonas isolated from ulcerated fish. In kind it is cell-based. To be noted: A. hydrophila. Here is the method: as §2
Test [18] has as its system Staphylococcus aureus. The test is described as follows: MIC/MBC and checkerboard of EDTA-Tris and neomycin. Format: cell-based. The conditions noted are these: in 50 mM Tris. Here is the method: as §3, §4, §5, §6, §7, §8, §9
The mark [19] stands for this setting: E. coli isolated from a dog with otitis externa, x = multiple of the 1x stock solution.
[20] abbreviates: P. aeruginosa from dogs with otitis externa and pyoderma, x = multiple of the 1x stock solution.
Setting [21] is: M. pachydermatis from dogs, x = multiple of the 1x stock solution.
The mark [22] stands for this setting: C. albicans from dogs, x = multiple of the 1x stock solution.
Where [23] appears, read: P. mirabilis from dogs, x = multiple of the 1x stock solution.
Where [24] appears, read: S. intermedius from dogs, x = multiple of the 1x stock solution.

Consider cocamidopropyl betaine, for which the MBC is 0.001x in test [1]; 0.5x in test [2]; 50% of stock solution in [3] (E. coli); 0.5x in test [3] (setting [19]); 50% of stock solution in test [4] (P. aeruginosa); 0.5x in test [4] (setting [20]). In addition, the MBC in test [5] (M. pachydermatis) is 0.3% of stock solution; in test [5] (setting [21]), 0.003x; in [6] (C. albicans), 0.3% of stock solution; in [6] (setting [22]) it was 0.003x; in test [7] (P. mirabilis), 50% of stock solution; in test [7] (setting [23]), 0.5x. Moreover, the MBC in [8] (S. intermedius) is 0.1% of stock solution; in test [8] (setting [24]) it was 0.001x. Moreover, the MIC in test [1] was 0.001x; in test [2], 0.25x; in test [3] (E. coli) it was 25% of stock solution; in [3] (setting [19]), 0.25x; in test [4] (P. aeruginosa), 25% of stock solution; in test [4] (setting [20]) it was 0.25x. Also, the MIC was 0.1% of stock solution in test [5] (M. pachydermatis); 0.001x in test [5] (setting [21]); 0.1% of stock solution in test [6] (C. albicans); 0.001x in [6] (setting [22]); 25% of stock solution in [7] (P. mirabilis); 0.25x in [7] (setting [23]). Further, the MIC in test [8] (S. intermedius) was 0.1% of stock solution; in test [8] (setting [24]), 0.001x.
In the case of `CN(C)[C@@H]1C(O)=C(C(N)=O)C(=O)[C@@]2(O)C(O)=C3C(=O)c4c(O)cccc4[C@@](C)(O)[C@H]3C[C@@H]12` [Te, tetracycline], the values for the Antibiotic resistance profile result in test [9], in test [10] and in [11] were “R”, “S” and “R”, respectively.
Take `CCn1cc(C(=O)O)c(=O)c2ccc(C)nc21` [NA, nalidixic acid]: the Antibiotic resistance profile result in test [9], in test [10] and in test [11] was “R” throughout.
As for `C[C@H]1[C@H](NC(=O)/C(=N\OC(C)(C)C(=O)O)c2csc(N)n2)C(=O)N1S(=O)(=O)O` [Azactam], the Healing of ulcers entry in [12] is recorded as “failed to heal visible ulcers”.
Turning to gentamicin [GM], the Antibiotic resistance profile entry in test [9] was “R”; in test [10], “S”; in test [11] it was “I”.
In the same order, the values of oxacillin/methicillin are “R”, “R” and “R”.
Regarding `NC[C@H]1O[C@H](O[C@H]2[C@H](O)[C@@H](O[C@H]3O[C@H](CO)[C@@H](O)[C@H](N)[C@H]3O)[C@H](N)C[C@@H]2N)[C@H](O)[C@@H](O)[C@@H]1O` [K, kanamycin], the Antibiotic resistance profile entry in [9], in [10] and in test [11] was “R” throughout.
Consider `O=C(O)CN(CCN(CC(=O)O)CC(=O)O)CC(=O)O` [EDTA, ethylenediaminetetraacetate], for which the “MIC, EDTA in 50 mM Tris alone” value in test [13] is 15.6; in test [14] it was under 0.49. Further, the “MBC, individually administered” value in [15] and in test [16] was 250 mM in each case.
Take neomycin: the “MIC, neomycin alone” value in test [13] worked out at 12.5 µg/mL; in test [14], 12.5 µg/mL; in test [17] it was 200 µg/mL. The Antibiotic resistance profile entry in test [9], in [10] and in test [11] was “R” each time. The “MBC, individually administered” value in test [15] amounted to 25000 µg/mL; in test [16], 5000 µg/mL; in test [18], 3130 µg/mL.
On to `CN[C@H](CC(C)C)C(=O)N[C@H]1C(=O)N[C@@H](CC(N)=O)C(=O)N[C@H]2C(=O)N[C@H]3C(=O)N[C@H](C(=O)N[C@H](C(=O)O)c4cc(O)cc(O)c4-c4cc3ccc4O)[C@H](O)c3ccc(c(Cl)c3)Oc3cc2cc(c3O[C@@H]2O[C@H](CO)[C@@H](O)[C@H](O)[C@H]2O[C@H]2C[C@](C)(N)[C@H](O)[C@H](C)O2)Oc2ccc(cc2Cl)[C@H]1O` [Va, vancomycin], for which the results for the Antibiotic resistance profile entry in test [9], in [10] and in test [11] were “R”, “S” and “R”, respectively.
For `CC[C@H]1OC(=O)[C@H](C)[C@@H](O[C@H]2C[C@@](C)(OC)[C@@H](O)[C@H](C)O2)[C@H](C)[C@@H](O[C@@H]2O[C@H](C)C[C@H](N(C)C)[C@H]2O)[C@](C)(O)C[C@@H](C)C(=O)[C@H](C)[C@@H](O)[C@]1(C)O` [E, erythromycin], the Antibiotic resistance profile entry in test [9], in test [10] and in test [11] was “R” in each case.
For `CCN1CCN(c2cc3c(cc2F)c(=O)c(C(=O)O)cn3C2CC2)CC1` [Baytril], the Healing of ulcers entry in [12] is listed as “failed to heal visible ulcers”.
In the case of `Cc1noc(NS(=O)(=O)c2ccc(N)cc2)c1C` [G, sulfisoxazole], the Antibiotic resistance profile result is reported as “R” in test [9], “S” in test [10] and “R” in test [11].
As to `NCC[C@H](O)C(=O)N[C@@H]1C[C@H](N)[C@@H](O[C@H]2O[C@H](CN)[C@@H](O)[C@H](O)[C@H]2O)[C@H](O)[C@H]1O[C@H]1O[C@H](CO)[C@@H](O)[C@H](N)[C@H]1O` [Amikacin], the Healing of ulcers result in test [12] is reported as “failed to heal visible ulcers”.
On to `O=C(N[C@H](CO)[C@H](O)c1ccc([N+](=O)[O-])cc1)C(Cl)Cl` [C, chloramphenicol], for which the Antibiotic resistance profile entry was “R” in test [9], “I” in [10] and “R” in test [11].
On to `[H]/N=C(/N)N[C@H]1[C@H](O)[C@@H](O)[C@H](O[C@@H]2O[C@@H](C)[C@](O)(C=O)[C@H]2O[C@@H]2O[C@@H](CO)[C@H](O)[C@@H](O)[C@@H]2NC)[C@@H](N/C(N)=N\[H])[C@@H]1O` [S, streptomycin], for which the Antibiotic resistance profile result is “R” in test [9], “S” in [10] and “R” in test [11].
Take `CC1(C)S[C@@H]2[C@H](NC(=O)[C@H](N)c3ccccc3)C(=O)N2[C@H]1C(=O)O` [Am, ampicillin]: the Antibiotic resistance profile result is recorded as “S” in test [9], “R^B” in [10] and “R” in [11].
